Reference: PMC12736951, “Design, Synthesis, and Biological Evaluation of 6″-Modified Apramycin Derivatives to Overcome Aminoglycoside Resistance” (Pharmaceutics, 2025)

How the values were obtained:
E. coli JW5503 KanR = experiment: MIC against transformant carrying APH(3′)-II; type: cell-based; conditions: Escherichia coli, JW5503KANR
Experimental: (§1) The determination of the MIC values was performed on five strains from the working collection of MSU. E. coli JW5503 [25], which lacked a kanamycin resistance cassette that had been removed as per the method outlined in [26], and a strain derived from this strain through in vitro selection with kanamycin. […] Strains containing AG-modifying enzymes were obtained through the transformation of E. coli JW5503 with plasmids that carried cassettes of resistance, namely pCRISPomyces-2–AAC(3)-IV (Addgene #61737), pdualrep2–APH(3′)-II [27] and pt67–ANT(3″). The MIC determination was performed as described for JW5503 in [19].

M. smegmatis ATCC 607 = experiment: MIC, broth microdilution; type: cell-based, Mycobacterium smegmatis; conditions: Mycolicibacterium smegmatis, ATCC607, Table 1
Description: The microbial strains used in this study were obtained from the collection of the Gause Institute of New Antibiotics. The control strains included in the analysis were S. aureus ATCC 29213, E. coli ATCC 25922, P. aeruginosa ATCC 27853, M. smegmatis ATCC 607. Clinical isolates E. coli MAR17-1350, K. pneumoniae APEX-5, K. pneumoniae MAR14-3395, and K. pneumoniae MAR18-1752 with multidrug resistance, including resistance to aminoglycosides were kindly provided by the Research Institute of Antimicrobial Chemotherapy (RIAC) of the Smolensk State Medical University, Smolensk. The microbial cultures were stored at −75 °C in trypticase soy broth (Becton, Dickinson, France) containing 10–15% glycerol. Storage was carried out in accordance with CLSI guidelines. Prior to experimentation, the bacterial strains were revived from cryopreservation by inoculating them onto trypticase soy agar (Becton, Dickinson, France) and incubating at (36 ± 1) °C for 16–24 h. Individual morphologically homogeneous colonies were then suspended in sterile physiological saline, and the turbidity of the suspension was adjusted to 0.5 McFarland units using a DEN-1 spectrophotometer (Biosan, Riga, Latvia), which corresponds to a concentration of 1.5 × 10^8 CFU/mL.
The samples were dissolved in sterile distilled water, depending on the physicochemical properties of the compounds under investigation, to a concentration of 10,000 µg/mL. Working solutions were then prepared by serial dilution, resulting in concentrations ranging from 64 µg/mL to 0.125 µg/mL.
Activity was evaluated by determining the minimum inhibitory concentration (MIC) values using the microdilution method in Mueller–Hinton Broth (Beckton and Dickinson, Le Pont-de-Claix, France), in accordance with the standard procedure for assessing the antimicrobial susceptibility of microorganisms.
The analysis was conducted in 96-well microtiter plates (Medpolymer, Saint Petersburg, Russia). The bacterial inoculum was introduced within 15 min of preparation. MIC values were determined after incubation for 15–18 h at (36 ± 1) °C. Microbial growth in the presence of the tested compounds was compared to the growth control (without exposure to the test samples). The MIC was defined as the lowest concentration at which visible microbial growth was inhibited.
To ensure the accuracy of the results, the control antibiotics kanamycin A, gentamycin, and tobramycin (Abcr GmbH, Karlsruhe, Germany) were included, along with standard reference strains: E. coli ATCC 25922. The MIC values for kanamycin A were determined as follows: E. coli ATCC 25922—1–4 µg/mL [22]. For gentamycin, the MIC values were E. coli ATCC 25922–0.25–1 µg/mL [23]. For tobramycin, the MIC values were E. coli ATCC 25922–0.25–1 µg/mL [23]. The MIC values of the reference strains were required to fall within the acceptable ranges specified in [24], provided that standard assay conditions were maintained.

E. coli JW5503 kanS = experiment: MIC against E. coli JW5503 parent strain; type: cell-based; conditions: Escherichia coli, JW5503KANS
Experimental: as §1

[1] = tested on: HEK293T human embryonic kidney cell line; experiment: Cytotoxicity, MTT test; type: cell-based; conditions: HEK-293T, 72 h, 2-250 µg/mL, read-out: IC50, viability of HEK293T cells
Experimental: The MTT test was performed in order to evaluate the effect of the compounds on eukaryotic cells’ survivability. Compounds 5a,b, 8a,b, and apramycin, as the reference drug, were tested on HEK293T human embryonic kidney cell line (ATCC). Compounds 5a,b, 8a,b, and apramycin were prepared as water solutions with a 50 mg/mL concentration. The HEK293T cell line was cultivated in DMEM/F-12 medium (Paneco LLC, Moscow, Russia) containing 10% FBS, 50 µg/mL penicillin, and 50 µg/mL streptomycin (Thermo Fisher Scientific, USA) at 37 °C in 5% CO2. Triplicates on 96-well plates were used, and 2500 HEK293T cells were seeded in 140 µL of DMEM/F-12 medium in each well during day one. The next day, compounds in twofold successive dilutions were added to these plates (concentrations in wells ranged between 2 and 250 µg/mL for 5a, 5b, and 8a, 8b). Plates were incubated for 72 h at 37 °C in 5% CO2. Afterwards, 0.5 mg/mL of the MTT reagent (Paneco LLC, Moscow, Russia) was added to each well. After 2 h of incubation, the media with MTT was replaced with 140 µL of DMSO, and all plates were placed on a shaker for 10 min for formazan to dissolve. Finally, the absorbance at a 555 nm wavelength was measured on all plates via the plate reader Victor X5 (PerkinElmer, Waltham, MA, USA). The data were then normalized, and dose–response curves and IC50 were calculated by means of GraphPad Prism version 8.0.2. (GraphPad Software, Inc., San Diego, CA, USA).

E. coli JW5503 SmR = experiment: MIC against transformant carrying ANT(3″); type: cell-based; conditions: Escherichia coli, JW5503SMR
Experimental: as §1

[2] = tested on: E. coli S30 Extract System, firefly luciferase synthesis; experiment: Cell-free translation inhibition assay; type: biochemical; conditions: for inhibition of protein synthesis in vitro (firefly luciferase): 0.4 μM, E. coli S30 extract; for inhibitory effect on translation relative to apramycin (1): equivalent concentrations (0.4 μM)
Experimental: The inhibitory effects of the compounds under investigation on in vitro firefly luciferase synthesis were evaluated using the E. coli S30 Extract System for Linear Templates (Promega, Madison, WI, USA), as previously described. The working concentration for all tested compounds in the in vitro translation reaction was 0.4 μM. As all compounds were diluted in water, it was used as the negative control.

[3] = tested on: E. coli JW5503 EF-G P610T; experiment: MIC against aminoglycoside-resistant EF-G mutant; type: cell-based; conditions: Escherichia coli
Experimental: as §1

CNC1C(OC2OC(CNCCN)C(N)C(O)C2O)OC2CC(N)C(OC3C(N)CC(N)C(O)C3O)OC2C1O (centres unmarked) [Compound 5a, 6″-((2-Aminoethyl-1)-amino)-6″-deoxyapramycin acetate]
MIC (E. coli JW5503 KanR): 16 µg/mL | MIC (M. smegmatis ATCC 607): 0.25 µg/mL | MIC (E. coli JW5503 kanS): 16 µg/mL | IC50 [1]: 243 ± 7 µg/mL | MIC (E. coli JW5503 SmR): 32 µg/mL | inhibition of protein synthesis in vitro (firefly luciferase) [2]: inhibited protein synthesis in vitro | inhibitory effect on translation relative to apramycin (1) [2]: approximately one order of magnitude weaker | MIC [3]: 32 µg/mL

CNC1C(OC2OC(CNCCCN)C(N)C(O)C2O)OC2CC(N)C(OC3C(N)CC(N)C(O)C3O)OC2C1O (centres unmarked) [Compound 5b, 6″-((3-Aminopropyl-1)-amino)-6″-deoxyapramycin acetate]
MIC (E. coli JW5503 KanR): 32 µg/mL | MIC (M. smegmatis ATCC 607): 0.25 µg/mL | MIC (E. coli JW5503 kanS): 32 µg/mL | IC50 [1]: > 250 µg/mL | MIC (E. coli JW5503 SmR): 32 µg/mL | inhibition of protein synthesis in vitro (firefly luciferase) [2]: inhibited protein synthesis in vitro | inhibitory effect on translation relative to apramycin (1) [2]: approximately one order of magnitude weaker | MIC [3]: 64 µg/mL

CNC1C(OC2OC(CNCCCNC(=N)N)C(N)C(O)C2O)OC2CC(N)C(OC3C(N)CC(N)C(O)C3O)OC2C1O (centres unmarked) [Compound 8b, 6″-((3-Guanidinopropyl-1)-amino)-6″-deoxyapramycin acetate]
MIC (E. coli JW5503 KanR): 16 µg/mL | MIC (M. smegmatis ATCC 607): 0.125 µg/mL | MIC (E. coli JW5503 kanS): 16 µg/mL | IC50 [1]: > 250 µg/mL | MIC (E. coli JW5503 SmR): 32 µg/mL | inhibition of protein synthesis in vitro (firefly luciferase) [2]: inhibited protein synthesis in vitro | inhibitory effect on translation relative to apramycin (1) [2]: approximately one order of magnitude weaker | MIC [3]: 64 µg/mL

CNC1C(OC2OC(CNCCNC(=N)N)C(N)C(O)C2O)OC2CC(N)C(OC3C(N)CC(N)C(O)C3O)OC2C1O (centres unmarked) [Compound 8a, 6″-((2-Guanidinoethyl-1)-amino)-6″-deoxyapramycin acetate]
MIC (E. coli JW5503 KanR): 8 µg/mL | MIC (M. smegmatis ATCC 607): 0.125 µg/mL | MIC (E. coli JW5503 kanS): 8 µg/mL | IC50 [1]: > 250 µg/mL | MIC (E. coli JW5503 SmR): 16 µg/mL | inhibition of protein synthesis in vitro (firefly luciferase) [2]: inhibited protein synthesis in vitro | inhibitory effect on translation relative to apramycin (1) [2]: approximately one order of magnitude weaker | MIC [3]: 32 µg/mL
